From patent publication US6706663B2, “Herbicidal 3-heterocyclic substituted benzisothiazole and benzisoxazole compounds” (Wyeth, priority 2000, dated 2004)

Assays:
[1] = system: ABUTH (Abutilon theophrasti); assay: Postemergence herbicidal evaluation; type: in vivo, Medic.
Procedure: (§1) In the tests, seedling plants are grown in jiffy flats for about two weeks. […] After spraying, the plants are placed on greenhouse benches and are cared for in accordance with conventional greenhouse procedures. From four to five weeks after treatment, the seedling plants are examined and rated according to the rating system set forth below. Where more than one test is involved for a given compound, the data are averaged.
(§2) Results of herbicide evaluation are expressed on a rating scale (0-9). The scale is based upon a visual observation of plant stand, vigor, malformation, size, chlorosis and overall plant appearance as compared with a control.

[2] = system: AMBEL (Ambrosia artemisifolia); assay: Postemergence herbicidal evaluation; type: in vivo, L.
Procedure: as §1, §2

[3] = system: CASOB (Cassia obtusifolia); assay: Postemergence herbicidal evaluation; type: in vivo, L.
Procedure: as §1, §2

[4] = system: CHEAL (Chenopodium album); assay: Postemergence herbicidal evaluation; type: in vivo, L.
Procedure: as §1, §2

GALAP (Galium aparine) [5] = assay: Postemergence herbicidal evaluation; type: in vivo
Procedure: as §1, §2

[6] = system: IPOHE (Ipomoea hederacea); assay: Postemergence herbicidal evaluation; type: in vivo, (L.) Jacq.
Procedure: as §1, §2

[7] = system: ECHCG (Echinochloa crus-galli); assay: Postemergence herbicidal evaluation; type: in vivo, (L.) Beau
Procedure: as §1, §2

SETVI (Setaria viridis) [8] = assay: Postemergence herbicidal evaluation; type: in vivo, (L.) Beau
Procedure: In the tests, seedling plants are grown in jiffy flats for about two weeks. The test compounds are dispersed in 50/50 acetone/water mixtures containing 0.5% TWEEN® 20, a polyoxyethylene sorbitan monolaurate surfactant of Atlas Chemical Industries, in sufficient quantities to provide the equivalent of about 0.0040 kg to 1.000 kg per hectare of active compound when applied to the plants through a spray nozzle operating at 40 psi for a predetermined time. After spraying, the plants are placed on greenhouse benches and are cared for in accordance with conventional greenhouse procedures. From four to five weeks after treatment, the seedling plants are examined and rated according to the rating system set forth below. Where more than one test is involved for a given compound, the data are averaged.
as §2

[9] = system: GLXMAW (Soybean, Williams); assay: Postemergence herbicidal evaluation; type: in vivo, Glycine max, (L.) Merr. cv Williams
Procedure: as §1, §2

ORYSAT (Rice, Tebonnet) [10] = assay: Postemergence herbicidal evaluation; type: in vivo, Oryza sativa, (L.) Tebonnet
Procedure: as §1, §2

[11] = system: TRZAWR (Wheat, Winter, cv Riband); assay: Postemergence herbicidal evaluation; type: in vivo, Triticum aestivum
Procedure: as §1, §2

ZEAMX (Corn, Field) [12] = assay: Postemergence herbicidal evaluation; type: in vivo, Zea mays, L.
Procedure: as §1, §2

[13] = system: ABUTH (Abutilon theophrasti); assay: Preemergence herbicidal evaluation; type: in vivo, Medic.; conditions: Rate 0.2500 kg/ha; preemergence; rated 4-5 weeks after treatment
Source text: as §2
(§3) The preemergence herbicidal activity of the test compounds of the present invention is exemplified by the following tests in which the seeds of a variety of monocotyledonous and dicotyledonous plants are separately mixed with potting soil and planted on top of approximately one inch of soil in separate pint cups. […] The treated cups are then placed on greenhouse benches, watered and cared for in accordance with conventional greenhouse procedures. From four to five weeks after treatment, the tests are terminated and each cup is examined and rated according to the rating system provided in Example 87. The plant species used and the compounds evaluated are the same as those shown in Example 87.

[14] = system: AMBEL (Ambrosia artemisifolia); assay: Preemergence herbicidal evaluation; type: in vivo, L.; conditions: Rate 0.2500 kg/ha; preemergence; rated 4-5 weeks after treatment
Source text: as §2, §3

[15] = system: CASOB (Cassia obtusifolia); assay: Preemergence herbicidal evaluation; type: in vivo, L.; conditions: Rate 0.2500 kg/ha; preemergence; rated 4-5 weeks after treatment
Source text: as §2, §3

[16] = system: CHEAL (Chenopodium album); assay: Preemergence herbicidal evaluation; type: in vivo, L.; conditions: Rate 0.2500 kg/ha; preemergence; rated 4-5 weeks after treatment
Source text: as §2, §3

GALAP (Galium aparine) [17] = assay: Preemergence herbicidal evaluation; type: in vivo; conditions: Rate 0.2500 kg/ha; preemergence; rated 4-5 weeks after treatment
Source text: as §2, §3

[18] = system: IPOHE (Ipomoea hederacea); assay: Preemergence herbicidal evaluation; type: in vivo, (L.) Jacq.; conditions: Rate 0.2500 kg/ha; preemergence; rated 4-5 weeks after treatment
Source text: as §2, §3

[19] = system: ECHCG (Echinochloa crus-galli); assay: Preemergence herbicidal evaluation; type: in vivo, (L.) Beau; conditions: Rate 0.2500 kg/ha; preemergence; rated 4-5 weeks after treatment
Source text: as §2, §3

SETVI (Setaria viridis) [20] = assay: Preemergence herbicidal evaluation; type: in vivo, (L.) Beau; conditions: Rate 0.2500 kg/ha; preemergence; rated 4-5 weeks after treatment
Source text: as §2, §3

[21] = system: GLXMAW (Soybean, Williams); assay: Preemergence herbicidal evaluation; type: in vivo, Glycine max, (L.) Merr. cv Williams; conditions: Rate 0.2500 kg/ha; preemergence; rated 4-5 weeks after treatment
Source text: as §2, §3

ORYSAT (Rice, Tebonnet) [22] = assay: Preemergence herbicidal evaluation; type: in vivo, Oryza sativa, (L.) Tebonnet; conditions: Rate 0.2500 kg/ha; preemergence; rated 4-5 weeks after treatment
Source text: as §2, §3

[23] = system: TRZAWR (Wheat, Winter, cv Riband); assay: Preemergence herbicidal evaluation; type: in vivo, Triticum aestivum; conditions: Rate 0.2500 kg/ha; preemergence; rated 4-5 weeks after treatment
Source text: as §2, §3

ZEAMX (Corn, Field) [24] = assay: Preemergence herbicidal evaluation; type: in vivo, Zea mays, L.; conditions: Rate 0.2500 kg/ha; preemergence; rated 4-5 weeks after treatment
Source text: as §2, §3

[25] = system: ECHORC (Echinochloa oryzoides); assay: Flooded paddy, preemergence weed control; type: in vivo, Echinochloa oryzoides (Ard.) Fritsch.; conditions: rate 0.1250 kg/ha, rated 3-4 weeks after treatment, 0-9 rating scale
Procedure: as §2
(§4) Preemergence herbicidal activity under flooded paddy conditions is determined as follows: plant seeds or propagating organs are planted in the top 0.5 cm of silt loam soil in 32 oz. plastic containers with a diameter of 10.5 cm and no drainage holes. Water is added to these containers and maintained at 1.5 to 3 cm above the soil surface for the duration of the experiment. […] The treated containers are placed on greenhouse benches and cared for in accordance with conventional greenhouse procedures.

CYPIR (Cyperus iria) = assay: Flooded paddy, preemergence weed control; type: in vivo; conditions: rate 0.1250 kg/ha, rated 3-4 weeks after treatment, 0-9 rating scale
Procedure: as §2, §4

[26] = system: CYPSE (Cyperus serotinus); assay: Flooded paddy, preemergence weed control; type: in vivo, Rottb.; conditions: rate 0.1250 kg/ha, rated 3-4 weeks after treatment, 0-9 rating scale
Procedure: as §2
Preemergence herbicidal activity under flooded paddy conditions is determined as follows: plant seeds or propagating organs are planted in the top 0.5 cm of silt loam soil in 32 oz. plastic containers with a diameter of 10.5 cm and no drainage holes. Water is added to these containers and maintained at 1.5 to 3 cm above the soil surface for the duration of the experiment. The test compounds are applied as aqueous/acetone mixtures 50/50 v/v pipetted directly into the flood water to give the equivalent of about 0.0080 to 0.1250 kg/ha of active ingredient. The treated containers are placed on greenhouse benches and cared for in accordance with conventional greenhouse procedures. Three to four weeks after treatment, the test is terminated and each container is examined and herbicidal effect rated according to the rating system provided in Example 87.

[27] = system: MOOVA (Monochoria vaginalis); assay: Flooded paddy, preemergence weed control; type: in vivo, Presl.; conditions: rate 0.1250 kg/ha, rated 3-4 weeks after treatment, 0-9 rating scale
Procedure: as §2, §4

[28] = system: SAGPY (Sagittaria pygmaea); assay: Flooded paddy, preemergence weed control; type: in vivo, L.; conditions: rate 0.1250 kg/ha, rated 3-4 weeks after treatment, 0-9 rating scale
Procedure: as §2, §4

ORYSAT (Rice, Tebonnet) [29] = assay: Flooded paddy, post-transplant rice tolerance; type: in vivo, Oryza sativa, (L.) Tebonnet; conditions: flooded paddy, post-transplant rice; rate 0.1250 kg/ha; rated 3-4 weeks after treatment; 0-9 rating scale
Procedure: as §2
The tolerance of transplanted rice to post-transplanted herbicide application is determined as follows: two ten-day-old rice seedlings (cv. Tebonnet) are transplanted into silt loam soil in 32 oz. plastic containers with a diameter of 10.5 cm and no drainage holes. After transplanting, the containers are flooded and the water level is maintained at 1.5 to 3 cm above the soil surface. […] The treated containers are placed on greenhouse benches, watered such that the water level is maintained as stated above, and cared for in accordance with conventional greenhouse procedures.

Row | SMILES | Postemergence herbicidal rating, ABUTH ([1]; rate 0.1250 kg/ha) | Postemergence herbicidal rating, AMBEL ([2]; rate 0.1250 kg/ha) | Postemergence herbicidal rating, CASOB ([3]; rate 0.1250 kg/ha) | ABUTH preemergence herbicidal rating [13] | AMBEL preemergence herbicidal rating [14] | CASOB preemergence herbicidal rating [15] | CHEAL preemergence herbicidal rating [16] | IPOHE preemergence herbicidal rating [18] | ECHCG preemergence herbicidal rating [19] | SETVI preemergence herbicidal rating (SETVI (Setaria viridis) [20]) | GLXMAW preemergence herbicidal rating [21] | ORYSAT preemergence herbicidal rating (ORYSAT (Rice, Tebonnet) [22]) | TRZAWR preemergence herbicidal rating [23] | ZEAMX preemergence herbicidal rating (ZEAMX (Corn, Field) [24]) | herbicidal rating, ECHORC [25] | herbicidal rating, CYPIR (CYPIR (Cyperus iria)) | herbicidal rating, CYPSE [26] | herbicidal rating, MOOVA [27] | herbicidal rating, SAGPY [28] | herbicidal rating, ORYSAT (rice tolerance) (ORYSAT (Rice, Tebonnet) [29]) | further results
1 | Cc1nnc(-c2nsc3ccc(-n4c(=O)cc(C(F)(F)F)n(C)c4=O)cc23)o1 [Compound 16, 1-methyl-3-[3-(5-methyl-1,3,4-oxadiazol-2-yl)-1,2-benzisothiazol-5-yl]-6-(trifluoromethyl)uracil] | 4.5 | 4.5 | 3.5 | 9.0 | 9.0 | 9.0 | 9.0 | 9.0 | 9.0 | 9.0 | 7.5 | 7.0 | 7.0 | 7.5 | 8.0 | 8.5 | 6.0 | 9.0 | 4.5 | 5.5 | Postemergence herbicidal rating, CHEAL ([4]; rate 0.1250 kg/ha): 3.5; Postemergence herbicidal rating, GALAP (GALAP (Galium aparine) [5]; rate 0.1250 kg/ha): 3.0; Postemergence herbicidal rating, IPOHE ([6]; rate 0.1250 kg/ha): 4.5; Postemergence herbicidal rating, ECHCG ([7]; rate 0.1250 kg/ha): 1.5; Postemergence herbicidal rating, SETVI (SETVI (Setaria viridis) [8]; rate 0.1250 kg/ha): 4.5; Postemergence herbicidal rating, GLXMAW ([9]; rate 0.1250 kg/ha): 5.8; Postemergence herbicidal rating, ORYSAT (ORYSAT (Rice, Tebonnet) [10]; rate 0.1250 kg/ha): 3.0; Postemergence herbicidal rating, TRZAWR ([11]; rate 0.1250 kg/ha): 3.0; Postemergence herbicidal rating, ZEAMX (ZEAMX (Corn, Field) [12]; rate 0.1250 kg/ha): 4.3; GALAP preemergence herbicidal rating (GALAP (Galium aparine) [17]): 7.0
2 | Cn1cccc1-c1nsc2ccc(-n3c(=O)cc(C(F)(F)F)n(C)c3=O)cc12 [Compound 6, 1-methyl-3-[3-(1-methylpyrrol-2-yl)-1,2-benzisothiazol-5-yl]-6-(trifluoromethyl)uracil] | 9.0 | 3.0 | 0.0 | 9.0 | 9.0 | 0.0 | 9.0 | 9.0 | 9.0 | 8.0 | 4.0 | 2.0 | 2.0 | 5.0 | 2.0 | 9.0 | 9.0 | 9.0 | 4.0 | 3.0 | Postemergence herbicidal rating, CHEAL ([4]; rate 0.1250 kg/ha): 4.0; Postemergence herbicidal rating, GALAP (GALAP (Galium aparine) [5]; rate 0.1250 kg/ha): 4.0; Postemergence herbicidal rating, IPOHE ([6]; rate 0.1250 kg/ha): 9.0; Postemergence herbicidal rating, ECHCG ([7]; rate 0.1250 kg/ha): 0.0; Postemergence herbicidal rating, SETVI (SETVI (Setaria viridis) [8]; rate 0.1250 kg/ha): 0.0; Postemergence herbicidal rating, GLXMAW ([9]; rate 0.1250 kg/ha): 7.5; Postemergence herbicidal rating, ORYSAT (ORYSAT (Rice, Tebonnet) [10]; rate 0.1250 kg/ha): 3.0; Postemergence herbicidal rating, TRZAWR ([11]; rate 0.1250 kg/ha): 4.5; Postemergence herbicidal rating, ZEAMX (ZEAMX (Corn, Field) [12]; rate 0.1250 kg/ha): 5.0
3 | C[C@@H]1O[C@@H]1c1nsc2ccc(-n3c(=O)cc(C(F)(F)F)n(C)c3=O)cc12 [Compound 13, 3-[3-[(1R,2S)-1,2-epoxypropyl]-1,2-benzisothiazol-5-yl]-1-methyl-6-(trifluoromethyl)uracil] | – | – | – | 9.0 | 9.0 | 9.0 | 9.0 | 9.0 | 9.0 | 9.0 | 7.5 | 7.5 | 5.0 | 7.0 | 6.0 | 8.0 | 6.5 | 9.0 | 4.0 | 7.5 | Postemergence herbicidal rating, ABUTH ([1]; rate 0.0620 kg/ha): 9.0; Postemergence herbicidal rating, AMBEL ([2]; rate 0.0620 kg/ha): 9.0; Postemergence herbicidal rating, CASOB ([3]; rate 0.0620 kg/ha): 5.0; Postemergence herbicidal rating, CHEAL ([4]; rate 0.0620 kg/ha): 6.0; Postemergence herbicidal rating, GALAP (GALAP (Galium aparine) [5]; rate 0.0620 kg/ha): 9.0; Postemergence herbicidal rating, IPOHE ([6]; rate 0.0620 kg/ha): 7.0; Postemergence herbicidal rating, ECHCG ([7]; rate 0.0620 kg/ha): 3.0; Postemergence herbicidal rating, SETVI (SETVI (Setaria viridis) [8]; rate 0.0620 kg/ha): 7.0; Postemergence herbicidal rating, GLXMAW ([9]; rate 0.0620 kg/ha): 7.0; Postemergence herbicidal rating, ORYSAT (ORYSAT (Rice, Tebonnet) [10]; rate 0.0620 kg/ha): 3.0; Postemergence herbicidal rating, TRZAWR ([11]; rate 0.0620 kg/ha): 3.0; Postemergence herbicidal rating, ZEAMX (ZEAMX (Corn, Field) [12]; rate 0.0620 kg/ha): 5.0; GALAP preemergence herbicidal rating (GALAP (Galium aparine) [17]): 9.0
